Test results taken from patent publication US20030061671A1, “Thioxanthone dyes with improved solubility and a method of preparing 2-oxybenzanthrones as intermediate materials for making of these dyes” (priority 2001, published 2003).
Like-named read-outs stand apart in the source and are kept apart here.

How the values were obtained:
[1] = Solubility comparison in chloroform (chloroform added to 0.1 g dye until full solubility); format: physicochemical
Description: Solubility Comparison of the Claimed compound and the Prototype
Two mixtures were prepared for comparison. The first one contained a dye prepared as per Example 1 by taking 0.1 g of the dye and adding chloroform until full solubility. The second mixture was prepared using 0.1 g of 6-methoxy-14H-anthra(2,1,9-mna)thioxanthene-14-one dye and also adding chloroform until its full solubility. At the end, 30 ml of chloroform was required to solute 0.1 g of the dye in the first mixture while 120 ml of the chloroform was required to solute the same amount of dye in case of the prototype.

[2] = colorant described by Carlini et al.; cited from earlier work

Row | Compound | chloroform required to solute 0.1 g of the dye ([1]; 0.1 g dye, chloroform added until full solubility) | improvement in solubility in chloroform versus prototype ([1]; claimed dye vs 6-methoxy prototype, chloroform) | solubility in organic solvents and polymer materials [2] | chloroform required to solute 0.1 g of the dye [1]
1 | 6-n-Octyloxy-14H-anthra(2,1,9 mna)thioxanthene-14-one [Example 1] | 30 mL | four-fold | – | –
2 | COc1cc2c3ccccc3c(=O)c3ccc4c5ccccc5sc1c4c32 [6-methoxy-14H-anthra(2,1,9-mna)thioxanthene-14-one] | – | – | poorly soluble | 120 mL
